# Article PMC10746543, “Design principles for cyclin K molecular glue degraders” (Nature Chemical Biology, 2023)
# Where “and” joins values, the source holds several entries; their conditions need not be identical. Equal values may be shown once.
# Experiments:
# CDK12–cyclin K = CDK12–cyclin K (Homo sapiens, UniProt Q9NYV4); experiment: Lanthascreen kinase binding assay, CDK12; conditions: for Lanthascreen raw signal, sheet CDK12: series r37, duplicates
# Description: Lanthascreen experiments were performed using commercially available reagents (Thermo Fisher) and according to the manufacturer’s instructions.
# CDK12–cyclin K and DDB1 = molecular target: T1, CDK12–cyclin K and DDB1 (Homo sapiens, UniProt Q16531+Q9NYV4, K965R); experiment: TR-FRET Kd determination, quadratic fit, 50 nM or 10 nM CDK12–cyclin K; type: binding
# T1 construct: His6–CDK12 (a.a. 713–1,052); full-length or beta-propeller B domain deletion (ΔBPB: a.a. 396–705 deleted) constructs of His6–DDB1ΔBPB, StrepII–Avi–DDB1, or His6–Spy–DDB1; made in house; host or cells: Trichoplusia ni High Five insect cells (baculovirus)
# Source text: Equation (2) is a quadratic binding equation used for Kd determination,where Top and Bottom refer to the curve plateaus. […]
# [1] = 10 nM CDK12-cyclin K + 100 nM DDB1, n = 1
# CDK12–cyclin K, sequence (Q9NYV4 713-1052): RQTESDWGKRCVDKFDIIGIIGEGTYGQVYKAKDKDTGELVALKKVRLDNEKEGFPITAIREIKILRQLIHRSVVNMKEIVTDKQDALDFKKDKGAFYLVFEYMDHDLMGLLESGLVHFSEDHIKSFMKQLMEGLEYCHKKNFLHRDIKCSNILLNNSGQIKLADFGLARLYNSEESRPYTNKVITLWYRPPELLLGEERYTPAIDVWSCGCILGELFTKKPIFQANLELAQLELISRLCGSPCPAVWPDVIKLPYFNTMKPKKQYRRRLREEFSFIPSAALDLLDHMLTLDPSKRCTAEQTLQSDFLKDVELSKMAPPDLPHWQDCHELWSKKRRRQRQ
# CDK12–cyclin K, sequence (O75909 1-267 partner limits assumed): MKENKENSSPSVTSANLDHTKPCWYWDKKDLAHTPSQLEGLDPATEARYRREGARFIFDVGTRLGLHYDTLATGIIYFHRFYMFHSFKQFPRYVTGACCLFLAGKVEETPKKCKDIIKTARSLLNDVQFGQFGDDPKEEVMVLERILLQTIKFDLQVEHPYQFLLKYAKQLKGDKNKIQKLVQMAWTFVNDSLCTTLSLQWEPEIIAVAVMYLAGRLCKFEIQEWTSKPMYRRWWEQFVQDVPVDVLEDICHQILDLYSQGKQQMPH
# T1 sequence (Q9NYV4 713-1052 K965R): as the sequence (Q9NYV4 713-1052) above, with K253R counted along it
# T1 sequence (O75909 1-267 partner): as the sequence (O75909 1-267 partner limits assumed) above
# T1 sequence (Q16531 whole entry): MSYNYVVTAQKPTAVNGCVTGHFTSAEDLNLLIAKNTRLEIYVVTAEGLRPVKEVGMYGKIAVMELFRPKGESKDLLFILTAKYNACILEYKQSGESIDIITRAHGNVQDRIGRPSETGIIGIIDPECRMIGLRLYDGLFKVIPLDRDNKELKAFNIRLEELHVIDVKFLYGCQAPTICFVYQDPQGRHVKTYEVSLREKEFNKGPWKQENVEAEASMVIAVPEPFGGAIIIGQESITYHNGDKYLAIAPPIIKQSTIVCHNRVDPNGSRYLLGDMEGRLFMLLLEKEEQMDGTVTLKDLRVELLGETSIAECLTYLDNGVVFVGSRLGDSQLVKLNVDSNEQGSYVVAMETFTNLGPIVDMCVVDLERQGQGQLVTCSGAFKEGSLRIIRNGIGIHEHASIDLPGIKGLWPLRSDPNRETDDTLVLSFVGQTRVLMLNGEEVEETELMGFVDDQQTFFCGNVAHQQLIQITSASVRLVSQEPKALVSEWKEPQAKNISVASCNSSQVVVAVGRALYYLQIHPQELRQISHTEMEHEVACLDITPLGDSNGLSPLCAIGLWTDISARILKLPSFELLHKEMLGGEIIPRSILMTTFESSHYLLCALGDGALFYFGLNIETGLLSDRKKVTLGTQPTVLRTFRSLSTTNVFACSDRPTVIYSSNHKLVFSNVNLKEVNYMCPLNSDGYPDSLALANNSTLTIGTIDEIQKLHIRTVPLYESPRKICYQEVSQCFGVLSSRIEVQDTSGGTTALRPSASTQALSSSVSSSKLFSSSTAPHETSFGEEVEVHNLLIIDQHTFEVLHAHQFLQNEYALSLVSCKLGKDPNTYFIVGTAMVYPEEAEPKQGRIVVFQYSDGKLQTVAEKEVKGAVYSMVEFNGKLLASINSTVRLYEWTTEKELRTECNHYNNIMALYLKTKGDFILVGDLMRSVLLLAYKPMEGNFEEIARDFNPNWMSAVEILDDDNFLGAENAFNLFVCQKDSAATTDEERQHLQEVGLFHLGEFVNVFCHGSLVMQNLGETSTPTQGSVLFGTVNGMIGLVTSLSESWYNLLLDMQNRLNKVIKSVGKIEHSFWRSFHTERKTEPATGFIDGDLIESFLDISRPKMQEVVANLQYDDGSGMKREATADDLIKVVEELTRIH
compound,measurement,setting,value
CC[C@H](CO)Nc1nc(NCc2nc3cc(Cl)c(Cl)cc3[nH]2)c2ncn(C(C)C)c2n1 [DS17],"CDK inhibitory selectivity, result in words",CDK12–cyclin K; Lanthascreen across CDK2/9/12,CDK12 selective
same,IC50,"CDK12–cyclin K; Supplementary Table 2, read-out: Lanthascreen IC50 [nM] CDK12",117 nM
same,"Lanthascreen raw signal, sheet CDK12",CDK12–cyclin K; compound 0.038147 nM,0.01439 and 0.01466
same,"Lanthascreen raw signal, sheet CDK12",CDK12–cyclin K; compound 0.152588 nM,0.01355 and 0.01465
same,"Lanthascreen raw signal, sheet CDK12",CDK12–cyclin K; compound 0.610352 nM,0.01399 and 0.01278
same,"Lanthascreen raw signal, sheet CDK12",CDK12–cyclin K; compound 9.76563 nM,0.01302 and 0.01264
same,"Lanthascreen raw signal, sheet CDK12",CDK12–cyclin K; compound 39.0625 nM,0.01048 and 0.01099
same,"Lanthascreen raw signal, sheet CDK12",CDK12–cyclin K; compound 156.25 nM,0.008496 and 0.009307
same,"Lanthascreen raw signal, sheet CDK12",CDK12–cyclin K; compound 625 nM,0.00749 and 0.007398
same,"Lanthascreen raw signal, sheet CDK12",CDK12–cyclin K; compound 2500 nM,0.006169 and 0.00594
same,"Lanthascreen raw signal, sheet CDK12",CDK12–cyclin K; compound 10000 nM,0.005029 and 0.005256
same,Kd,CDK12–cyclin K and DDB1; [1],< 1 nM
same,TR-FRET Kd*,CDK12–cyclin K and DDB1; [1],subnanomolar range
same,TR-FRET signal,"CDK12–cyclin K and DDB1; 10 nM CDK12-cyclin K, compound 0.468 nM",0.1296
same,TR-FRET signal,"CDK12–cyclin K and DDB1; 10 nM CDK12-cyclin K, compound 2.16 nM",0.2552
same,TR-FRET signal,"CDK12–cyclin K and DDB1; 10 nM CDK12-cyclin K, compound 3.6 nM",0.4087
same,TR-FRET signal,"CDK12–cyclin K and DDB1; 10 nM CDK12-cyclin K, compound 7.92 nM",0.5094
same,TR-FRET signal,"CDK12–cyclin K and DDB1; 10 nM CDK12-cyclin K, compound 15.84 nM",0.5468
same,TR-FRET signal,"CDK12–cyclin K and DDB1; 10 nM CDK12-cyclin K, compound 30.96 nM",0.5623
same,TR-FRET signal,"CDK12–cyclin K and DDB1; 10 nM CDK12-cyclin K, compound 62.6399 nM",0.5693
same,TR-FRET signal,"CDK12–cyclin K and DDB1; 10 nM CDK12-cyclin K, compound 125.279 nM",0.582
same,TR-FRET signal,"CDK12–cyclin K and DDB1; 10 nM CDK12-cyclin K, compound 244.8 nM",0.5785
same,TR-FRET signal,"CDK12–cyclin K and DDB1; 10 nM CDK12-cyclin K, compound 993.6 nM",0.5613
same,TR-FRET signal,"CDK12–cyclin K and DDB1; 10 nM CDK12-cyclin K, compound 2001.6 nM",0.5626
same,Kd,"CDK12–cyclin K and DDB1; 50 nM CDK12-cyclin K + 100 nM DDB1, n = 1",< 1 nM
same,TR-FRET signal,"CDK12–cyclin K and DDB1; 50 nM CDK12-cyclin K, compound 0.468 nM",0.2322
same,TR-FRET signal,"CDK12–cyclin K and DDB1; 50 nM CDK12-cyclin K, compound 2.16 nM",0.3077
same,TR-FRET signal,"CDK12–cyclin K and DDB1; 50 nM CDK12-cyclin K, compound 3.6 nM",0.4714
same,TR-FRET signal,"CDK12–cyclin K and DDB1; 50 nM CDK12-cyclin K, compound 7.92 nM",0.8383
same,TR-FRET signal,"CDK12–cyclin K and DDB1; 50 nM CDK12-cyclin K, compound 15.84 nM",1.774
same,TR-FRET signal,"CDK12–cyclin K and DDB1; 50 nM CDK12-cyclin K, compound 30.96 nM",3.053
same,TR-FRET signal,"CDK12–cyclin K and DDB1; 50 nM CDK12-cyclin K, compound 62.6399 nM",3.258
same,TR-FRET signal,"CDK12–cyclin K and DDB1; 50 nM CDK12-cyclin K, compound 125.279 nM",3.326
same,TR-FRET signal,"CDK12–cyclin K and DDB1; 50 nM CDK12-cyclin K, compound 244.8 nM",3.353
same,TR-FRET signal,"CDK12–cyclin K and DDB1; 50 nM CDK12-cyclin K, compound 993.6 nM",3.25
same,TR-FRET signal,"CDK12–cyclin K and DDB1; 50 nM CDK12-cyclin K, compound 2001.6 nM",3.218
